Test results published in ChEMBL document CHEMBL1909046, “DrugMatrix in vitro pharmacology data”.

Tests used:
[1] = target: 5-hydroxytryptamine receptor 2B (Homo sapiens, UniProt P41595); assay type: cell membranes, CHO-K1, Membrane; conditions: for Ki: read-out: Ki; on all read-outs here: in other assays of this panel Not Active means under 50% inhibition at 10 µM
[2] = target: T1, 5-hydroxytryptamine receptor 2C (Homo sapiens, UniProt P28335); assay: DRUGMATRIX: Serotonin (5-Hydroxytryptamine) 5-HT2C radioligand binding (ligand: [3H] Mesulergine); assay type: cell membranes, CHO-K1, Membrane; conditions: Not Active = under 50% inhibition at 10 µM; for Ki: read-out: Ki
T1 sequence (P28335 whole entry): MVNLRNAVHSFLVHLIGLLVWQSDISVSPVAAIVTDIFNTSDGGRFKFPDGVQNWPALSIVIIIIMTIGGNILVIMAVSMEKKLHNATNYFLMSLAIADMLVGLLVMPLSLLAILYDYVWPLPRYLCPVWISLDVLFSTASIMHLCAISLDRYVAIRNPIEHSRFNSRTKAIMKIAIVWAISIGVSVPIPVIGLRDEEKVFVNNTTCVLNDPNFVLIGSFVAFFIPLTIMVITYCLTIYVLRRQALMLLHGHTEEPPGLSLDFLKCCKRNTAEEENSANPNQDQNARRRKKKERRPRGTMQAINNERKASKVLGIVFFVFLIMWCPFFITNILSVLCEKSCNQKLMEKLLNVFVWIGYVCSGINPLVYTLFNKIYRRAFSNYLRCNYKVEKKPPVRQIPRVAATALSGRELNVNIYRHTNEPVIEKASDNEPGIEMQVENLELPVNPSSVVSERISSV

[3] = target: Melanocortin receptor 4 (Homo sapiens, UniProt P32245); assay type: cell membranes, Membrane; conditions: hek293; further: in other assays of this panel Not Active means under 50% inhibition at 10 µM
Sequence of Melanocortin receptor 4 (P32245 whole entry): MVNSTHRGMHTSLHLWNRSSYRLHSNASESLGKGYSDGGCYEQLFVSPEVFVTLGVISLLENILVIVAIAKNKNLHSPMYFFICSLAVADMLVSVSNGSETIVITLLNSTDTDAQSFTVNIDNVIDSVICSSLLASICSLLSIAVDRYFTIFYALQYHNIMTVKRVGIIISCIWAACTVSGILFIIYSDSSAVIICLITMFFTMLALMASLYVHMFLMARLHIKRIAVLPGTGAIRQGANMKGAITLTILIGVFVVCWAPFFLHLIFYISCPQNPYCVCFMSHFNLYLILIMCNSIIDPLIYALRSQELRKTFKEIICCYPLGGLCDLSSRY

[4] = target: T2, Neuropeptide Y receptor type 2 (Homo sapiens, UniProt P49146); assay type: cell membranes, Membrane; conditions: kan-ts; further: in other assays of this panel Not Active means under 50% inhibition at 10 µM
T2 sequence (P49146 whole entry): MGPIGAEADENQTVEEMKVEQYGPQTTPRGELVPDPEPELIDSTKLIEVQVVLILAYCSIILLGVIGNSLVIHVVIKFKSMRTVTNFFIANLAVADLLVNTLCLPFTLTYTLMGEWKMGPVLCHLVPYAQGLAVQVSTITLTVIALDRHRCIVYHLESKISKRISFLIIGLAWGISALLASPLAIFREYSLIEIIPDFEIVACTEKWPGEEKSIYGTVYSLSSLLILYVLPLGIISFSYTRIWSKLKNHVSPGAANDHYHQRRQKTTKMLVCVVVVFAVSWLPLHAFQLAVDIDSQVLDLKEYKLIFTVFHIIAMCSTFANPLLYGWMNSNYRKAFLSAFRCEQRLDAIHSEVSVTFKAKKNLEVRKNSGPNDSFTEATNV

[5] = target: Kappa-type opioid receptor (Homo sapiens, UniProt P41145); assay: DRUGMATRIX: Opiate kappa (OP2, KOP) radioligand binding (ligand: [3H] Diprenorphine); assay type: cell membranes, HEK293, Membrane; conditions: hek293; Not Active = under 50% inhibition at 10 µM
Sequence of Kappa-type opioid receptor (P41145 whole entry): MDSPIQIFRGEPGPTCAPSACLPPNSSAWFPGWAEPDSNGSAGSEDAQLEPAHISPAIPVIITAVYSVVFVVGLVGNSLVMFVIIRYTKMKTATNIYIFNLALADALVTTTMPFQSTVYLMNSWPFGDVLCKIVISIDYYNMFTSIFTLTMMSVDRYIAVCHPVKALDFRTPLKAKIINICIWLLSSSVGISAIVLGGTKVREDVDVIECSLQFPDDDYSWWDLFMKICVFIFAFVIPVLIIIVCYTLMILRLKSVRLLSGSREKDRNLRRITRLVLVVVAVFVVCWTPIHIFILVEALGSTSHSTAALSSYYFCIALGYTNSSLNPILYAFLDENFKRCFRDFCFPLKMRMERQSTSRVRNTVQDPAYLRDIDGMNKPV

[6] = target: Cytochrome P450 3A4 (Homo sapiens, UniProt P08684); conditions: bti-tn-5b1-4; further: in other assays of this panel Not Active means under 50% inhibition at 10 µM
Sequence of Cytochrome P450 3A4 (P08684 whole entry): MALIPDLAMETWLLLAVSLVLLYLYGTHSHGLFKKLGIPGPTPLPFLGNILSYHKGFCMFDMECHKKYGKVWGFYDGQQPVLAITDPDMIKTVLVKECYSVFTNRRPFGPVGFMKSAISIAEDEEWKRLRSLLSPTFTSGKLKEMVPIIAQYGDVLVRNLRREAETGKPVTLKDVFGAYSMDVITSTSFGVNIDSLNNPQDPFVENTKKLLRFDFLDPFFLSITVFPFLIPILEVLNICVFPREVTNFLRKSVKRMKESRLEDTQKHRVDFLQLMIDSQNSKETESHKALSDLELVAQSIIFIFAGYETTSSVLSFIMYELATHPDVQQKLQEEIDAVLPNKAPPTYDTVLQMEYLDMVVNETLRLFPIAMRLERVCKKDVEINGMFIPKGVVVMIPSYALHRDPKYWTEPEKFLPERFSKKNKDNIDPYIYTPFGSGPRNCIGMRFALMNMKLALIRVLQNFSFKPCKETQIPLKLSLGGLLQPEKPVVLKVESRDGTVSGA

Sequence of 5-hydroxytryptamine receptor 2B (P41595 whole entry): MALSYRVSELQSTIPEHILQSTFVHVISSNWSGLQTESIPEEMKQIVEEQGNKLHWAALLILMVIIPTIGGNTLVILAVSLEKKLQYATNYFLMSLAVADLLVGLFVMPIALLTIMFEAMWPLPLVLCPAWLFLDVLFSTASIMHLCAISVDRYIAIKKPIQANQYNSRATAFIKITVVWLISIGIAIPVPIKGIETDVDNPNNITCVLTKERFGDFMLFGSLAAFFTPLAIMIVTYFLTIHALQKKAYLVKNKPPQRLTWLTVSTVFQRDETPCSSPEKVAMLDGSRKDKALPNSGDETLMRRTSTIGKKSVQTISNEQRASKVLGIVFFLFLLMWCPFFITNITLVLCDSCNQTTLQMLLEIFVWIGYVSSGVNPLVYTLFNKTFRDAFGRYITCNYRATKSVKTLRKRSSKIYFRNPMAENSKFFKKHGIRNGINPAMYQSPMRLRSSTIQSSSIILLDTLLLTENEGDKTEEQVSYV

SMILES | IC50 ([1]; cho-k1) | IC50 ([2]; cho-k1) | IC50 [3] | IC50 [4] | IC50 [5] | IC50 [6] | Ki [6] | IC50 ([1]; read-out: IC50) [µM] | Ki [1] [µM] | IC50 ([2]; read-out: IC50) [µM] | Ki [2] [µM]
CC(=O)OC[C@H]1O[C@@H](n2ncc(=O)[nH]c2=O)[C@H](OC(C)=O)[C@@H]1OC(C)=O [AZARIBINE] | Not Active | Not Active | Not Active | Not Active | Not Active | Not Active | Not Active |  |  |  | 
C[C@H]1[C@H](NC(=O)/C(=N\OC(C)(C)C(=O)O)c2csc(N)n2)C(=O)N1S(=O)(=O)O [AZTREONAM] | Not Active | Not Active | Not Active | Not Active | Not Active | Not Active | Not Active |  |  |  | 
O=C(O)CCNC(=O)c1ccc(/N=N/c2ccc(O)c(C(=O)O)c2)cc1 [BALSALAZIDE] | Not Active | Not Active | Not Active | Not Active | Not Active | Not Active | Not Active |  |  |  | 
Cn1c(=O)c2c(ncn2C)n(C)c1=O [CAFFEINE] | Not Active | Not Active | Not Active | Not Active | Not Active | Not Active | Not Active |  |  |  | 
ClC(Cl)(Cl)Cl [CARBON TETRACHLORIDE] | Not Active | Not Active | Not Active | Not Active | Not Active | Not Active | Not Active |  |  |  | 
CO/N=C(\C(=O)N[C@@H]1C(=O)N2C(C(=O)O)=C(COC(C)=O)CS[C@H]12)c1csc(N)n1 [CEFOTAXIME] | Not Active | Not Active | Not Active | Not Active | Not Active | Not Active | Not Active |  |  |  | 
CNC1=Nc2ccc(Cl)cc2C(c2ccccc2)=[N+]([O-])C1 [CHLORDIAZEPOXIDE] | Not Active | Not Active | Not Active | Not Active | Not Active | Not Active | Not Active |  |  |  | 
Cc1cc(O)cc(C)c1Cl [CHLOROXYLENOL] |  | Not Active | Not Active | Not Active | Not Active | Not Active | Not Active | 1.86 | 1.18 |  | 
CCCNC(=O)NS(=O)(=O)c1ccc(Cl)cc1 [CHLORPROPAMIDE] | Not Active | Not Active | Not Active | Not Active | Not Active | Not Active | Not Active |  |  |  | 
NS(=O)(=O)c1cc(C2(O)NC(=O)c3ccccc32)ccc1Cl (stereo unspecified) [CHLORTHALIDONE] | Not Active | Not Active | Not Active | Not Active | Not Active | Not Active | Not Active |  |  |  | 
O=C(O)CC(O)(CC(=O)O)C(=O)O [CITRIC ACID] | Not Active | Not Active | Not Active | Not Active | Not Active | Not Active | Not Active |  |  |  | 
CC(C)NCC(O)c1ccccc1Cl (stereo unspecified) [CLORPRENALINE] | Not Active | Not Active | Not Active | Not Active | Not Active | Not Active | Not Active |  |  |  | 
CN1CCN(C(c2ccccc2)c2ccccc2)CC1 [CYCLIZINE] |  |  | Not Active | Not Active | Not Active | Not Active | Not Active | 0.373 | 0.238 | 1.02 | 0.535
CN1C[C@@H]2C[C@H]1CN2c1cc2c(cc1F)c(=O)c(C(=O)O)cn2C1CC1 [DANOFLOXACIN] | Not Active | Not Active | Not Active | Not Active | Not Active | Not Active | Not Active |  |  |  | 
COc1cccc2c1C(=O)c1c(O)c3c(c(O)c1C2=O)C[C@@](O)(C(C)=O)C[C@@H]3O[C@H]1C[C@H](N)[C@H](O)[C@H](C)O1 [DAUNORUBICIN] | Not Active | Not Active | Not Active | Not Active | Not Active | Not Active | Not Active |  |  |  | 
O=C(O)c1cc(-c2ccc(F)cc2F)ccc1O [DIFLUNISAL] | Not Active | Not Active | Not Active | Not Active | Not Active | Not Active | Not Active |  |  |  | 

SMILES | IC50 ([1]; cho-k1) | IC50 ([2]; cho-k1) | IC50 [3] | IC50 [4] | IC50 [5] | IC50 [6] | Ki [6] | IC50 ([1]; read-out: IC50) [µM] | Ki [1] [µM] | IC50 ([2]; read-out: IC50) [µM] | Ki [2] [µM]
C[S+](C)[O-] [DIMETHYL SULFOXIDE] | Not Active | Not Active | Not Active | Not Active | Not Active | Not Active | Not Active |  |  |  | 
CC1=NN(c2ccccc2)C(=O)C1 [EDARAVONE] | Not Active | Not Active | Not Active | Not Active | Not Active | Not Active | Not Active |  |  |  | 
C[C@]12CC[C@@H]3c4ccc(O)cc4CC[C@H]3[C@@H]1C[C@@H](O)[C@@H]2O [ESTRIOL] | Not Active | Not Active | Not Active | Not Active | Not Active | Not Active | Not Active |  |  |  | 
C#C[C@]1(O)CC[C@H]2[C@@H]3CCC4=CC(=O)CC[C@]4(C)[C@H]3CC[C@@]21C [ETHISTERONE] | Not Active | Not Active | Not Active | Not Active | Not Active | Not Active | Not Active |  |  |  | 
CC(O)(P(=O)(O)O)P(=O)(O)O [ETIDRONIC ACID] | Not Active | Not Active | Not Active | Not Active | Not Active | Not Active | Not Active |  |  |  | 
CN1CCN(c2c(F)cc3c(=O)c(C(=O)O)cn(CCF)c3c2F)CC1 [FLEROXACIN] | Not Active | Not Active | Not Active | Not Active | Not Active | Not Active | Not Active |  |  |  | 
O=c1[nH]c(=O)n([C@H]2C[C@H](O)[C@@H](CO)O2)cc1F [FLOXURIDINE] | Not Active | Not Active | Not Active | Not Active | Not Active | Not Active | Not Active |  |  |  | 
COC(=O)Nc1nc2cc(C(=O)c3ccc(F)cc3)ccc2[nH]1 [FLUBENDAZOLE] | Not Active | Not Active | Not Active | Not Active | Not Active | Not Active | Not Active |  |  |  | 
CC(=O)OCC(=O)[C@@]1(O)CC[C@H]2[C@@H]3CCC4=CC(=O)CC[C@]4(C)[C@@]3(F)[C@@H](O)C[C@@]21C [FLUDROCORTISONE ACETATE] | Not Active | Not Active | Not Active | Not Active | Not Active | Not Active | Not Active |  |  |  | 
CCOC(=O)c1ncn2c1CN(C)C(=O)c1cc(F)ccc1-2 [FLUMAZENIL] | Not Active | Not Active | Not Active | Not Active | Not Active | Not Active | Not Active |  |  |  | 
O=C(O)P(=O)(O)O [FOSCARNET] | Not Active | Not Active | Not Active | Not Active | Not Active | Not Active | Not Active |  |  |  | 
Cc1ccc(C)c(OCCCC(C)(C)C(=O)O)c1 [GEMFIBROZIL] | Not Active | Not Active | Not Active | Not Active | Not Active | Not Active | Not Active |  |  |  | 
O=c1c(-c2ccc(O)cc2)coc2cc(O)cc(O)c12 [GENISTEIN] | Not Active |  | Not Active | Not Active | Not Active | Not Active | Not Active |  |  | 14.9 | 7.81
CCC1=C(C)CN(C(=O)NCCc2ccc(S(=O)(=O)NC(=O)N[C@H]3CC[C@H](C)CC3)cc2)C1=O [GLIMEPIRIDE] | Not Active | Not Active | Not Active | Not Active | Not Active | Not Active | Not Active |  |  |  | 
Nc1cc(-c2ccncc2)c[nH]c1=O [INAMRINONE] | Not Active | Not Active | Not Active | Not Active | Not Active | Not Active | Not Active |  |  |  | 
